Earlier results, collected in patent US20100286262A1, “PTGS2 HAPLOTYPES” (priority 2007, published 2010).
Like-named read-outs stand apart in the source and are kept apart here.

What was measured:
[1] = adjuvant setting; cited from earlier work
[2] = test system: colorectal cancer (CRC) risk; details: cited from earlier work

| SMILES | Cardiotoxicity [1] | RR of CRC with aspirin use ([2]; cancers with weak or absent COX-2 expression, 0.73-1.26) | RR of CRC with aspirin use ([2]; tumours overexpressing COX-2, 0.52-0.78) |
| --- | --- | --- | --- |
| O=c1[nH]cc(F)c(=O)[nH]1 [5-fluorouracil] | 2-4% | – | – |
| CC(=O)Oc1ccccc1C(=O)O [aspirin] | – | 0.96 | 0.64 |
